In patent US10487082B2, “S1PR2 antagonists and uses therefor” (DALHOUSIE UNIVERSITY, priority 2015, dated 2019):
“Also recorded” adds a separate entry of the source.

Columns and labels:
Fzd4−/− mice = assay: Retinal vasculature in Fzd4−/− mouse model of FEVR (flat-mounted retinas, iso-lectin B4 staining, confocal microscopy); format: in vivo; settings: 0.5 mg/kg intraperitoneally every second day from P7 to P25, retinas at P25
Protocol: FIG. 7 illustrates that treatment of Fzd4^−/− mice with the S1PR2 antagonist JTE-013 ameliorates the FEVR phenotype. Fzd4^−/− mice were injected with 0.5 mg/kg JTE-013 intraperitoneally every second day from P7 to P25. Retinas were flat mounted at P25 and the vasculature visualized by confocal microscopy subsequent to staining with iso-lectin B4 AlexaFluor 594.
Fzd4^−/− mice were injected with 0.5 mg/kg JTE-013 intraperitoneally every second day from P7 to P25. Using standard protocols, retinas were flat mounted at P25 and the vasculature visualized by confocal microscopy subsequent to staining with iso-lectin B4 AlexaFluor 594. (Vascular development in the retina and inner ear: control by Norrin and Frizzled-4, a high-affinity ligand-receptor pair. Xu Q, Wang Y, Dabdoub A, Smallwood P M, Williams J, Woods C, Kelley M W, Jiang L, Tasman W, Zhang K, Nathans J. Cell 116, 883-95 (2004).)

S1PR2 = S1PR2 (Homo sapiens, UniProt O95136); settings: cited from earlier work
Sequence of S1PR2 (O95136 whole entry): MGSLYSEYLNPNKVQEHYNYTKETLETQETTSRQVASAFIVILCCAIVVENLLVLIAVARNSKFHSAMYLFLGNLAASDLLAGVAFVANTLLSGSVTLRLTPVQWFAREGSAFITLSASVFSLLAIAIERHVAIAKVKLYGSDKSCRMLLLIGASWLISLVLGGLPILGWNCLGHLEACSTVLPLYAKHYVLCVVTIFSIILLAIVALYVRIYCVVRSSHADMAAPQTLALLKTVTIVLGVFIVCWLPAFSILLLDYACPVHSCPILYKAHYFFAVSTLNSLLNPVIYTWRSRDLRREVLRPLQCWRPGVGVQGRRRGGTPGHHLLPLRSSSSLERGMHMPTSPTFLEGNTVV

## Cc1nn(C)c2nc(NNC(=O)Nc3cc(Cl)nc(Cl)c3)cc(C(C)C)c12 [JTE-013, 1-(2,6-dichloro-4-pyridyl)-3-[(4-isopropyl-1,3-dimethyl-pyrazolo[3,4-b]pyridin-6-yl)amino]urea]
Fzd4−/− mice
  retinal vascular patterning / FEVR retinal vascularization defects: substantial restoration of normal retinal vascular patterning; also recorded: able to ameliorate FEVR retinal vascularization defects
S1PR2
  affinity for S1PR2: 18 nM
  specificity for S1PR2 versus other S1PRs: 100 fold
